Data on two molecules can be found in patent publication US8299252B2, “Pyrazolopyridine and pyrrolopyridine multikinase inhibitors” (Chugai Seiyaku Kabushiki Kaisha, priority 2005, dated 2012).

In series [1] the test system is human colon cancer cell line HCT116 cells. As to the kind of experiment: Cell proliferation inhibitory activity, HCT116. Format: cell-based. As to conditions: Homo sapiens, HCT-116, read-out: 50% proliferation inhibitory concentration (IC50 value) HCT116; HCT116, 72 hours, WST-8. The procedure: (§1) The compounds according to the present invention were measured for cancer cell proliferation inhibitory activity and human umbilical vein endothelial cell (HUVEC) proliferation inhibitory activity.
(§2) Test compounds were serially diluted with dimethyl sulfoxide and then diluted 50 times with Ca^2+- and Mg^2+-free phosphate-buffered saline, and 20 μL of each of the resulting solution was dispensed into a 96-well plate. […] Each cell suspension contains approximately 3000 cells/180 μL. These cell suspensions were dispensed to the plate containing the test compounds at 180 μL/well and incubated in a 5% carbon dioxide gas incubator at 37° C. for 72 hours. 20 μL of WST-8 (HCT116, Dojin) or WST-1 (HUVEC, Roche Diagnostics) was added to each well, and absorbance at 450 nm (reference wavelength: 650 nm) was measured.
On the technique in general: Formazan colour is commonly taken as a measure of viable cells.

Series [2] relates to human umbilical vein endothelial cells (HUVEC), VEGF-dependent proliferation. As to the kind of experiment: VEGF-dependent HUVEC proliferation inhibition assay. The settings on record: read-out: 50% proliferation inhibitory concentration (IC50 value) HUVEC (VEGF-dependent), 20 ng/mL of VEGF, 72 hours, WST-1. It counts as cell-based. As for the experimental part: as §1, §2
Series [3] concerns human umbilical vein endothelial cells (HUVEC), VEGF-independent proliferation. Description: VEGF-independent HUVEC proliferation inhibition assay. Format: cell-based. The settings on record: read-out: 50% proliferation inhibitory concentration (IC50 value) HUVEC (VEGF-independent), vascular endothelial cell growth-promoting agent and heparin, 72 hours, WST-1. As for the experimental part:
as §1, §2

For series [4], the system named is tube formation of human-derived vascular endothelial cells (HUVEC). Description: Tube formation inhibition test (angiogenesis assay kit, KURABO). It counts as cell-based. As to conditions: 264 h, final concentration 6.4 nM, 11 days, read-out: Tube formation inhibition ratio (%). As for the experimental part:
The formed tubes were stained with a tube staining kit CD31 (KURABO). The stain image of each well was taken under a microscope, stored in an image file, and measured for the tube formation area using angiogenesis quantitative analysis software of KURABO. The inhibition ratio % of each test compound added to the well was calculated, provided that the ratio of the reference was 100%.

The subject of series [5] is human colon cancer cell line HCT116 cells. Description: Antitumor test, HCT116 transplanted subcutaneously in nude mice. It counts as in vivo, female Balb/c nude mouse. As to conditions: 100 mg/kg oral, once a day for 12 days. The procedure:
A cell suspension of human colon cancer cell line HCT116 cells was prepared using Hanks's solution, and 5.0×10^6 cells thereof were transplanted subcutaneously into the flank of each female Balb/c nude mouse. Oral administration of the test compound (once a day for 12 days) was started when the transplanted tumor volume reached 200 to 250 mm^3. The tumor volume was calculated by the expression: 0.5×(minor axis)^2×(major axis). The tumor growth inhibition ratio of tumor growth of the test compound to tumor growth of the reference group was determined.

Series [6] can be described thus: Solubility in fasted state simulated intestinal fluid. It counts as physicochemical. The settings on record: pH 6.5, fassif, kinetic from dmso stock, fasted state simulated intestinal fluid (pH6.5), 37° C. The procedure: 2 μL of each dimethyl sulfoxide solutions containing test compounds were dispensed into wells of a 96-well plate, and 200 μL of fasted state simulated intestinal fluid (pH6.5) was added to each well. The plate was shaken at 37° C. for 20 hours. The solution was filtered through a membrane filter, and 101 μL of the filtrate was transferred to a UV plate, followed by addition of 100 μL of a solution mixture of ethanol:water=2:1 thereto. Separately, as a standard, 101 μL of a solution prepared by 2 μL of a dimethyl sulfoxide solution, 4 μL of dimethyl sulfoxide, 400 μL of ethanol, and 200 μL of water was transferred to a UV plate, and 100 μL of fasted state simulated intestinal fluid (pH6.5) was added thereto. The solubility was calculated by the following expression: Solubility=[(absorbance of test solution)−blank]/[(absorbance of standard solution)−blank]×165 μM (165 μM is the concentration of the standard solution) Composition of the fasted state simulated intestinal fluid (pH6.5)
The composition was prepared in compliance with the description in E. Galia, et al., Pharm. Res. 1998, 698.
Taurocholic acid (161 mg), L-α-phosphatidylcholine (59 mg), potassium dihydrogen phosphate (0.39 g), and potassium chloride (0.77 g) were added to about 90 mL of water. The resulting solution was adjusted to a pH of 6.5 with a sodium hydroxide aqueous solution and then diluted to a volume of 100 mL with water. The solution was filtered through a membrane filter.

Series [7] is described as follows: Pharmacokinetics test, oral administration. It counts as in vivo. The settings on record: female, Balb/c nude, mouse, 100 mg/kg, plasma. The procedure:
The compound according to the present invention and known Compound A were measured for pharmacokinetics. Each of the test compounds was orally administered to each female Balb/c nude mouse at a dose of 100 mg/kg, and concentrations of the compound in plasma 0.5, 2, 7, and 24 hours after the administration were quantitatively measured by LC-MS-MS.

Series [8] concerns choroidal neovascularization. Description: Laser coagulation-induced murine choroidal neovascularization model. Format: in vivo, C57BL6J mice. As to conditions: for Average FA score: once a day for three days. As for the experimental part: Laser coagulation was performed on two- to three-month-old C57BL6J mice (ten mice per group) by using a 408 nm semiconductor laser (DC-3000, Nidek). Both eyes were each irradiated at three positions with a spot size of 170 μm, an exposure time of 0.02 sec, and an output of 200 mW. The drug was orally administered once a day for three days beginning on the day of the laser coagulation. On the next day of the last administration, the mice were intravenously injected with 7 mg/kg of fluorescein. Five minutes after the injection, three fluorescent fundus images of each eye were taken (TRC-501X, Topcon) and stored in a CCD camera having 640×480 pixels as an image file. The total pixel brightness (0 to 1) in regions where fluorescein leakage was detected was used as an index (FA score) of choroidal neovascularization activity. The FA score was calculated by defining reference values such that the pixel brightness in a capillary region of a non-coagulated site is 0 and the pixel brightness on a main branch of the retinal blood vessel is 1.

Converted amounts (≈) assume the structure as drawn.

In general, solubility refers to how much of the substance goes into solution per volume. A high value points to much dissolved substance. One may read the AUC as concentration integrated over time. A word on the Cmax: it is the maximum level reached in the sampled fluid or tissue. On to `O=C(Nc1ccc(Oc2ccnc3[nH]ccc23)cc1)Nc1ccc(CCC(F)F)c(C(F)(F)F)c1` [Compound 12, 1-[4-(3,3-Difluoropropyl)-3-(trifluoromethyl)phenyl]-3-[4-(1H-pyrrolo[2,3-b]pyridin-4-yloxy)phenyl]urea], for which the IC50 worked out at 2600 nM in series [1], 5.1 nM in series [2] and 270 nM in series [3]. Moreover, the inhibition at 0.0064 µM in series [4] turned out to be 81%. The “Tumor growth inhibition ratio (%)” value in series [5] (last administration day) is 100%. Further, in series [5] (maximum decrease), the “Decrease ratio in body weight (%)” value worked out at 6.5%. Moreover, in series [6], the solubility at 20 h is 15 µg/mL (≈ 30.6 µM). This molecule gave an AUC in series [7] of 247 µg·h/mL. For the same molecule, the Cmax in series [7] is 22700 ng/mL. For the same molecule, the “inhibition of the angiogenesis (in words)” value in series [8] (50 mg/kg) and in series [8] (100 mg/kg) was “significantly inhibited” throughout. Moreover, the “Average FA score” value came out at 6.910 in series [8] (50 mg/kg oral) and 6.833 in series [8] (100 mg/kg oral).

In series [6], `CNC(=O)c1cc(Oc2ccc(NC(=O)Nc3ccc(Cl)c(C(F)(F)F)c3)cc2)ccn1` [Compound A, BAY 43-9006, reference compound] registered a solubility at 20 h of 6 µg/mL (≈ 12.9 µM). In series [7], this molecule showed an AUC of 189 µg·h/mL and a Cmax of 19200 ng/mL. For the same molecule, the “inhibition of the angiogenesis (in words)” value in series [8] (100 mg/kg) is “did not significantly inhibit”. Besides, the “Average FA score” value in series [8] (100 mg/kg oral) was determined as 7.258.
